Experimental findings from patent US20250152564A1, “PROPYLENE KETONE-CONTAINING BIOINHIBITOR, PREPARATION METHOD THEREFOR, AND USE THEREOF” (SHANGHAI HANSOH BIOMEDICAL CO., LTD., priority 2022, published 2025) are described below.

pIC50: −log10 of the molar value.

The target of one series is FGFR1 (Homo sapiens (Human), UniProt P11362). The series is described as follows: TR-FRET kinase inhibition assay, FGFR1. It is filed as biochemical. The note with it: ATP Km concentration (30 μM). An outline of the steps:
(§1)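 Kinase-domain fragments in 50 mM HEPES pH 7.5 with 10 mM MgCl2, ATP at Km plus peptide substrate; 60 min reaction at room temperature, then EDTA/Eu-anti-phosphotyrosine (PT66) detection for 60 min (30 min for V564F). 11-point 3-fold dilutions from 1000 nM; IC50 from four-parameter fit of 665/620 nm ratio inhibition.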
Background: Time-resolved FRET reads energy transfer from a long-lived donor to a nearby acceptor.

The target in the next series is FGFR2 (Homo sapiens (Human), UniProt P21802). Briefly: TR-FRET kinase inhibition assay, FGFR2. It counts as biochemical. The note with it: ATP Km concentration (30 μM). An outline of the steps: as §1
A further series has as its target FGFR3 (Homo sapiens (Human), UniProt P22607). The series is described as follows: TR-FRET kinase inhibition assay, FGFR3. It counts as biochemical. To be noted: ATP Km concentration (30 μM). As for the experimental part: To measure the IC50 values of the compounds against FGFR1, FGFR2, FGFR3, FGFR4, and FGFR2 V564F at ATP Km concentrations by TR-FRET method.
TR-FRET (time-resolved fluorescence resonance energy transfer) method was used to detect the inhibitory activity of the compounds on FGFR1, FGFR2, FGFR3, FGFR4, and FGFR2 V564F kinase region fragments. The highest detection concentration of the compounds in 5 kinase experiments was 1000 nM, which was diluted in 3 folds, with a total of 11 concentrations (1000 nM to 0.017 nM). A kinase buffer (50 mM HEPES pH 7.5, 1 mM EGTA, 10 mM MgCl2, 2 mM DTT, and 0.01% Tween-20) was used to prepare 4× enzyme solution, 4× compound solutions diluted in gradient, and a 2×ATP/Peptide substrate solution. To a 384-well plate, 2.5 μL of enzyme solution and 2.5 μL of diluted […] compound solution were added, and 5 μL of 2×ATP/Peptide substrate solution was then added. After reacting at room temperature for 60 minutes for FGFR1, FGFR2, FGFR3, and FGFR2 V564F kinases, and 120 minutes for FGFR4 kinase, 10 μL of a 2× termination and detection mixed liquid prepared with 1×LANCE detection buffer with an EDTA concentration of 20 mM and a Europium-anti-phosphotyrosine (PT66) concentration of 2 nM was added to each well of the plate. After reacting at room temperature for 60 minutes for FGFR1, FGFR2, FGFR3, and FGFR4, and 30 minutes for FGFR2 V564F, the fluorescence signal value in each well of the plate was measured by a microplate reader.
1) Inhibition rate (%): Calculation was performed on the raw data (665 nm/620 nm reading ratio) according to the following formula to obtain the inhibition rate. Inhibition rate %=[(mean value in positive control well−value in sample well)/(mean value in positive control well−mean value in negative control well)]×100, wherein the positive control well was a reaction well without a compound […], and the negative control well was a reaction wells without an enzyme.
(§2) 2) Curve fitting: Log(inhibitor) vs. response—Variable slope (four parameters) in GraphPad Prism 6 was used for fitting equation analysis of the compound concentration and the corresponding inhibition rate, and the curve was fitted to obtain the IC50 values of the compounds.

Another series has as its target FGFR2 V564F (Homo sapiens (Human), UniProt P21802, V564F). Briefly: TR-FRET kinase inhibition assay, FGFR2 V564F. The note with it: ATP Km concentration (20 μM). It counts as biochemical. An outline of the steps: as §1
The subject of the next series is NCI-H716 cells. The series is described as follows: CellTiter-Glo cell proliferation inhibition, NCI-H716. To be noted: Homo sapiens, 72 h, read-out: NCI-H716 cell proliferation inhibition rate IC50. It is filed as cell-based. As for the experimental part:
To evaluate inhibitory effects of the compounds on the proliferation of NCI-H716, SNU-16 and BaF3-FGFR2-BICC1 V564F cells by cell proliferation inhibition experiments.
CellTiter-Glo method was used to detect inhibitory effects of the compounds on the proliferation of NCI-H716, SNU-16 and BaF3 FGFR2-BICC1 V564F cells. The highest detection concentration of the compounds was 1000 nM, which was diluted in 3 folds, with a total of 9 concentrations (1000 nM to 0.15 nM). After the cells were plated at an appropriate density, compounds were added the next day and incubated for 72 h before detection using the […] detection kit.
1) Inhibition rate (%): Inhibition rate %=[(mean value in positive control well−value in sample well)/(mean value in positive control well−mean value in negative control well)]×100, wherein the positive control well was a reaction well without a compound […], and the negative control well was a reaction wells without an enzyme.
as §2
For orientation: In ATP-based viability assays light output follows the ATP content of the culture.

The subject of series [1] is BaF3 FGFR2-BICC1 V564F cells. The series is described as follows: CellTiter-Glo cell proliferation inhibition, BaF3 FGFR2-BICC1 V564F. It is filed as cell-based. To be noted: Mus musculus, 72 h, read-out: BaF3 FGFR2-BICC1 V564F inhibitory activity IC50. An outline of the steps:
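Cells plated, compound added next day as 9-point 3-fold series from 1000 nM to 0.15 nM, incubated 72 h. Viability by CellTiter-Glo luminescence; IC50 from four-parameter variable-slope fit of percent inhibition.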

A short description of series [2]: Pharmacokinetic experiment in SD rats after oral administration. It counts as in vivo. The note with it: 5 mg/kg, plasma; for AUC(0-t) / AUC(0-inf) / half-life / MRT / Cmax: male, Sprague-Dawley (SD), rat, po; for AUC(0-t): read-out: Area under the curve AUC0-t; for AUC(0-inf): read-out: Area under the curve AUC0-∞; for half-life: read-out: Half-life t1/2 (converted); for MRT: read-out: Mean residence time MRT; for Cmax: read-out: Plasma concentration Cmax; for Time to peak tmax: p.o. As for the experimental part: To study the pharmacokinetic behavior of the compounds of the present invention in the rat body (plasma) after oral administration at a dose of 5 mg/kg using SD rats as test animals.
3 SD rats/group, male, from Shanghai Jiesijie Experimental Animal Co., Ltd., animal production license number (SCXK (Shanghai) 2013-0006 N0.311620400001794).
PO, 10% solutol HS15-0.5% CMC-Na was dissolved by ultrasound and prepared into a clear solution or homogeneous suspension.
3 SD rats/group, male; p.o. respectively at a dose of 5 mg/kg and an administration volume of 10 mL/kg after the […] were fasted overnight.
After oral administration to rats, at 0.25, 0.5, 1, 2, 4, 6, 8 and 24 hours, 0.2 mL of blood was collected from the jugular vein, placed in an EDTA-K2 test tube, centrifuged at 6000 rpm for 6 min at 4° C. to separate the plasma, which was stored at −80° C.
1) 100 μL of acetonitrile was added to 20 μL of plasma sample for pelleting, and it was mixed and centrifuged at 3500×g for 5-20 min.
2) The treated supernatant solution was taken and subjected to LC/MS/MS to analyze the concentrations of the test compounds. LC/MS/MS analysis instrument: AB Sciex API 4000 Qtrap.
• Liquid phase conditions: Shimadzu LC-20AD pump • Chromatographic column: Waters Xbridge C18 5 μm, 4.6×50 mm mobile phase: liquid A was 0.1% aqueous formic acid solution, and liquid B was methanol • Flow rate: 1.0 mL/min • Elution time: 0-4.0 min, the eluent was as follows: […]

FGFR2, sequence (P21802 481-770): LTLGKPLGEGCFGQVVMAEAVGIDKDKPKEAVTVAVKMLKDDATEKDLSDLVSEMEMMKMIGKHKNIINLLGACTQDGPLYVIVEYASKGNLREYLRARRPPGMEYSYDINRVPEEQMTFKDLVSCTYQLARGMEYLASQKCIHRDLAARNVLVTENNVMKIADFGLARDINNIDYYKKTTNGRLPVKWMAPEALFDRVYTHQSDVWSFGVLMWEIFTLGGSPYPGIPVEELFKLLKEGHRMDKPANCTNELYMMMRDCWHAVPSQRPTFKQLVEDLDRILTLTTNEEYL
FGFR2 V564F, sequence (P21802 481-770 V564F): as the sequence (P21802 481-770) above, with V84F counted along it
FGFR1, sequence (P11362 478-767): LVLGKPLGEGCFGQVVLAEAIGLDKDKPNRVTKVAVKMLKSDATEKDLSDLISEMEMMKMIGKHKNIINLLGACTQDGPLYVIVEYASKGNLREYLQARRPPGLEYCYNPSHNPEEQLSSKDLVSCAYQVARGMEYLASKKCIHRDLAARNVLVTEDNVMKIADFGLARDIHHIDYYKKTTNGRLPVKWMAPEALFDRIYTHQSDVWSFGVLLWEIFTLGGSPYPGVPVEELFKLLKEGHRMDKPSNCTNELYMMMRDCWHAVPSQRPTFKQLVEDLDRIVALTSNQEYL
FGFR3, sequence (P22607 472-761): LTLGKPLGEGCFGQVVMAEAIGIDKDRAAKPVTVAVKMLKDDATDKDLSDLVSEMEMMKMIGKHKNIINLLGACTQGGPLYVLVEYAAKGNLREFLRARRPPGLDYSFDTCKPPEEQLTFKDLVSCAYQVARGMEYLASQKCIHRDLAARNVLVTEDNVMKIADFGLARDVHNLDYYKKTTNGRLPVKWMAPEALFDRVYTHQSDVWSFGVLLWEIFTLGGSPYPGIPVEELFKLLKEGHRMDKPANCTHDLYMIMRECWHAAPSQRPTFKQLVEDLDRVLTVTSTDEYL

With `C=CC(=O)N1CC[C@H](n2nc(C#Cc3ccc4c(c3)ncn4C3CC3)c3c(N)ncc(C(C)=O)c32)C1` [Example 37, (S)-1-(3-(7-acetyl-4-amino-3-((1-cyclopropyl-1H-benzo[d]imidazol-5-yl)ethynyl)-1H-pyrazolo[4,3-c]pyridin-1-yl)pyrrolidin-1-yl)prop-2-en-1-one], the pIC50 against FGFR1 was 8.62; at FGFR2, 9.00; on FGFR3, 8.96; at FGFR2 V564F, 9.30; with NCI-H716 cells it was 9.02; in series [1], 8.70.
What is called MRT is the average time that molecules of a dose stay in the body. Molecule `C=CC(=O)N1CC[C@H](n2nc(C#Cc3ccc4cn(C5CC5)nc4c3)c3c(N)ncc(C(C)=O)c32)C1` [Example 87, (S)-1-(3-(7-acetyl-4-amino-3-((2-cyclopropyl-2H-indazol-6-yl)ethynyl)-1H-pyrazolo[4,3-c]pyridin-1-yl)pyrrolidine-1-methyl)prop-2-en-1-one] had a pIC50 at FGFR1 of 8.80. The molecule further showed a pIC50 at FGFR2 of 9.30. The pIC50 at FGFR2 V564F was 9.22. The pIC50 with NCI-H716 cells is 8.88. In addition, the pIC50 in series [1] is 9.52. Moreover, in series [2], the AUC(0-t) was 2240 ng·h/mL, the AUC(0-inf) was found to be 2240 ng·h/mL, the half-life was 0.5 h and the MRT came to 2.38 h. In addition, in series [2], the Cmax amounted to 534 ng/mL and the Time to peak tmax worked out at 2 h.
`C=CC(=O)N1CC[C@H](n2nc(C#Cc3ccc4oc(C5CC5)nc4c3)c3c(N)ncc(C(C)=O)c32)C1` [Example 70, (S)-1-(3-(7-acetyl-4-amino-3-((2-cyclopropylbenzo[d]oxazol-5-yl)alkynyl)-1H-pyrazolo[4,3-c]pyridin-1-yl)pyrrolidine-1-methyl)prop-2-en-1-one]: at FGFR1, the pIC50 is 8.62. This molecule showed a pIC50 on FGFR2 of 9.22. At FGFR2 V564F, this molecule showed a pIC50 of 8.89. Moreover, in the series with NCI-H716 cells, the pIC50 is 8.80. Moreover, the pIC50 in series [1] was 8.59. Moreover, in series [2], the AUC(0-t) was found to be 1510 ng·h/mL, the AUC(0-inf) was 1860 ng·h/mL, the half-life is 2.5 h and the MRT was 5.5 h. In series [2], the Cmax was found to be 287 ng/mL and the Time to peak tmax came to 4 h.
As to `C=CC(=O)N1CC[C@H](n2nc(C#Cc3ccc4c(c3)ncn4C)c3c(N)ncc(C(=O)CC)c32)C1` [Example 64, (S)-1-(3-(4-amino-3-((1-methyl-1H-benzo[d]imidazol-5-yl)ethynyl)-7-propionyl-1H-pyrazolo[4,3-c]pyridin-1-yl)pyrrolidin-1-yl)prop-2-en-1-one], the pIC50 against FGFR1 is 8.20. Besides, the pIC50 on FGFR2 is 8.85. Besides, the pIC50 against FGFR2 V564F is 9.22. For the same molecule, in the series on NCI-H716 cells, the pIC50 is 8.74. In addition, in series [1], the pIC50 was 8.72. Moreover, in series [2], the AUC(0-t) stood at 3400 ng·h/mL, the AUC(0-inf) stood at 3430 ng·h/mL, the half-life was 0.9 h and the MRT stood at 2.58 h. Further, in series [2], the Cmax amounted to 866 ng/mL and the Time to peak tmax turned out to be 2 h.
In the case of `C=CC(=O)N1CC[C@H](n2nc(C#Cc3ccc4ccnn4c3)c3c(N)ncc(C(C)=O)c32)C1` [Example 71, (S)-1-(3-(7-acetyl-4-amino-3-(pyrazolo[1,5-a]pyridine-6-ethynylene)-1H-pyrazolo[4,3-c]pyridin-1-yl)pyrrolidine-1-methyl)prop-2-en-1-one], the pIC50 at FGFR1 is 8.14; at FGFR2 it was 8.70; at FGFR3, 8.57; on FGFR2 V564F it was 8.55; in the series on NCI-H716 cells, 8.82; in series [1] it was 8.66.
At FGFR1, `C=CC(=O)N1CC[C@H](n2nc(C#Cc3ccc4c(c3)ncn4C3CC3)c3c(N)ncc(C(=O)C4CC4)c32)C1` [Example 38, (S)-1-(3-(4-amino-7-(cyclopropanecarbonyl)-3-((1-cyclopropyl-1H-benzo[d]imidazol-5-yl)ethynyl)-1H-pyrazolo[4,3-c]pyridin-1-yl)pyrrolidin-1-yl)prop-2-en-1-one] gave a pIC50 of 8.55. The pIC50 at FGFR2 was 8.80. The same molecule showed a pIC50 against FGFR2 V564F of 9.00. In addition, in the series with NCI-H716 cells, the pIC50 is 9.04. Also, the pIC50 in series [1] is 8.72. For the same molecule, in series [2], the AUC(0-t) was 2230 ng·h/mL, the AUC(0-inf) is 2270 ng·h/mL, the half-life is 1.1 h and the MRT amounted to 2.99 h. Moreover, in series [2], the Cmax stood at 604 ng/mL and the Time to peak tmax is 2 h.
For `C=CC(=O)N1CC[C@H](n2nc(C#Cc3ccc4cn(CC)nc4c3)c3c(N)ncc(C(C)=O)c32)C1` [Example 85, (S)-1-(3-(7-acetyl-4-amino-3-((2-ethyl-2H-indazol-6-yl)alkynyl)-1H-pyrazolo[4,3-c]pyridin-1-yl)pyrrolidine-1-methyl)prop-2-en-1-one], at FGFR1, the pIC50 is 8.68. Moreover, the pIC50 against FGFR2 was 9.40. The pIC50 against FGFR2 V564F is 9.30. In addition, in the series with NCI-H716 cells, the pIC50 was 9.02. The pIC50 in series [1] is 9.40. For the same molecule, in series [2], the AUC(0-t) is 1490 ng·h/mL, the AUC(0-inf) was found to be 1490 ng·h/mL, the half-life is 0.5 h and the MRT was determined as 2.39 h. For the same molecule, in series [2], the Cmax came to 394 ng/mL and the Time to peak tmax amounted to 0.5 h.
